The source of these data is US20260306500A1, “METHOD OF INHIBITING ADENOSINE TRIPHOSPHATE SECRETION, METHOD OF INHIBITING HEPATIC STELLATE CELL ACTIVATION, METHOD OF DEACTIVATING HEPATIC STELLATE CELL, METHOD OF TREATING HEPATIC FIBROSIS, METHOD OF TREATING NON-ALCOHOLIC STEATOHEPATITIS, AND METHOD OF TREATING PSORIASIS” (Kurume University, priority 2023, published 2026).

Experiment [1] has as its system ATP-loaded vesicles of keratinocytes. Briefly: Accumulation of MANT-ATP in granules of keratinocytes (confocal microscopy). The class given is cell-based, human. As to conditions: 10 μM imeglimin, 19 hours, 0.3 mM MANT-ATP (FIG. 13). How it is done:
Keratinocytes were cultured in the same manner as in Example 8. Keratinocytes were cultured at 4×10^4 cells/ml in a glass-bottom dish (35 mm, manufactured by Matsunami Glass Ind., Ltd.) at 37° C. in 5% CO2 for 2 days. The culture medium was then replaced with a medium supplemented with MANT-ATP (manufactured by Invitrogen) at a final concentration of 0.3 mM, and further incubation was performed for 4.5 hours. Subsequently, imeglimin was added thereto to a final concentration of 10 μM, and further incubation was performed at 37° C. in 5% CO2 for 19 hours. Thereafter, the cells were washed twice with HBSS (manufactured by Gibco) and observed using an inverted confocal laser microscope (FV-1000 OSR, manufactured by Olympus Corporation).

Experiment [2] concerns mouse liver. Briefly: Thioacetamide-induced hepatic fibrosis in mice: histology, immunostaining and fibrosis score. Type of experiment: in vivo. As to conditions: 200 mg/kg p.o. three times per week. How it is done: Wild-type mice, […] (manufactured by Charles River Japan), were housed on a 12-hour light/dark cycle and fed a standard solid diet (5.4% fat, CRF-1, manufactured by Oriental Yeast Co., Ltd.) ad libitum. Thioacetamide (TAA, manufactured by FUJIFILM Wako Pure Chemical Corporation) was dissolved in physiological saline at 0.9% w/v. Eight-week-old mice were randomly assigned to three groups and continuously treated for 9 weeks according to the following scheme. At Week 9, all mice were euthanized 1 hour after administration of physiological saline or IMG.
Normal control group (N=6): Physiological saline was intraperitoneally administered to mice three times per week. Eight hours after each administration, a vehicle was orally administered to the mice.
TAA group (N=6): TAA (50 mg/kg, intraperitoneal) was administered to mice. Eight hours thereafter, physiological saline was orally administered to the mice. This treatment was performed three times per week for a total of 9 weeks.
TAA+IMG group (N=6): During the first week, physiological saline was orally administered to mice. Thereafter, imeglimin (IMG) at 200 mg/kg was orally administered three times per week for 8 weeks. The administration of IMG was performed 8 hours after intraperitoneal administration of TAA (50 mg/kg).
For immunohistochemical analysis, liver samples were fixed in 4% paraformaldehyde, embedded in paraffin, and then sectioned. The sections were stained with HE or PSR. In addition, the paraffin-embedded sections were subjected to immunostaining using an α-SMA monoclonal antibody (1:500, catalog No. A5228, manufactured by Sigma-Aldrich) and an F4/80 monoclonal antibody (1:200, catalog No. MCA497GA, manufactured by AbD Serotec). The cell specimens were observed using a microscope (BZ-X700 series, manufactured by Keyence) or a confocal laser microscope (FV1000, manufactured by Olympus Corporation). The number of F4/80-positive cells was counted in four high-power fields per section. The α-SMA-positive area and the PSR-positive area were quantified using the image analysis software Fiji-ImageJ (1.54f).
A histological score was determined by a blinded investigator using the NAFLD histological scoring system of the Nonalcoholic Steatohepatitis Clinical Research Network. The total NAFLD activity score (NAS) was calculated from the total of the individual scores for steatosis ([…]), lobular inflammation (F4/80), and hepatocyte ballooning. The range of each parameter was 0 to 2 (ballooning) or 3 (the other two scores), where 0 indicates normal and 2 or 3 indicates severe. Staging of fibrosis was based on the NASH fibrosis stages, and a fibrosis stage ranging from 0 to 4 was determined according to Reference H (David E. Kleiner et al., 2005, Design and validation of a histological scoring system for nonalcoholic fatty liver disease, Hepatology, 41, 1313-1321).
All results are expressed as the mean±standard error of the mean (S.E.M.). Statistical analyses were performed using GraphPad Prism 7.0 (GraphPad Software). Significance upon comparison between two groups was evaluated by an unpaired two-tailed Student's t-test. […]. Statistical significance among three or more groups was determined by two-way analysis of variance (ANOVA) with Tukey's or Dunnett's post hoc test. Coloc2 was used to perform image analysis, automatic thresholding, and pixel intensity correlation for statistical processing. Statistical significance was assumed when the P value was <0.05.

The test system of experiment [3] is mouse auricle. Kind of experiment: Imiquimod-induced psoriasis relapse model (Example 20). Type of experiment: in vivo. As to conditions: 40 mg/kg oral. How it is done:
To the left auricle of each mouse, 62.5 mg of 5% imiquimod cream (Beselna Cream 5%) was applied once daily a total of seven times (Days 1 to 7) in accordance with Example 19 to induce imiquimod-induced psoriasis. Thereafter, the imiquimod treatment was interrupted, and imeglimin (40 mg/kg) was orally administered on alternate days for 2 weeks (Day 8 to 22) (IMG). Mice without administration of imeglimin were designated IMQ. On Day 23, the imiquimod treatment was resumed, and 62.5 mg of 5% imiquimod cream (Beselna Cream 5%) was applied once daily a total of […]. In parallel, imeglimin (40 mg/kg) was orally administered daily to IMG.

Take `C[C@@H]1N=C(N)NC(N(C)C)=N1` [imeglimin]: the “accumulation of MANT-ATP in granules” value in experiment [1] was “absent”. For the same compound, in experiment [2] (8 weeks), the “destruction of the lobular structure, hepatocyte ballooning, and inflammatory cell infiltration” value is recorded as “reduced”; the fibrosis stage result was “reducing the fibrosis stage”. Also, in experiment [2] (8 weeks (FIG. 27)), the “TAA-induced increase in F4/80-positive macrophages” value is reported as “strongly suppressed” and the “TAA-induced increase in α-SMA-positive reaction” value is on record as “strongly suppressed”. Further, the “TAA-induced increase in fibrosis score” value in experiment [2] (8 weeks (FIG. 28)) was “suppressed”. In experiment [2] (8 weeks, TAA+IMG vs TAA group, N=6), the PSR staining-positive area entry is reported as “significantly reduced”. Besides, the “relapse-preventing effect on psoriasis” value in experiment [3] is reported as “relapse-preventing effect on psoriasis”. The “psoriatic symptoms after resumed imiquimod treatment” value in experiment [3] (alternate days Day 8 to 22, then daily from Day 23 (FIG. 43)) is “markedly reduced compared to IMQ”.
